Source: PubChem BioAssay AID1671325

Target: Mitogen-activated protein kinase 11 (Homo sapiens) (UniProt Q15759)
Assay: PubChem AID 1671325
Conditions: Z'-LYTE FRET kinase activity, recombinant MAPK11

Mitogen-activated protein kinase 11 (Homo sapiens), sequence (Q15759 whole entry, looked up): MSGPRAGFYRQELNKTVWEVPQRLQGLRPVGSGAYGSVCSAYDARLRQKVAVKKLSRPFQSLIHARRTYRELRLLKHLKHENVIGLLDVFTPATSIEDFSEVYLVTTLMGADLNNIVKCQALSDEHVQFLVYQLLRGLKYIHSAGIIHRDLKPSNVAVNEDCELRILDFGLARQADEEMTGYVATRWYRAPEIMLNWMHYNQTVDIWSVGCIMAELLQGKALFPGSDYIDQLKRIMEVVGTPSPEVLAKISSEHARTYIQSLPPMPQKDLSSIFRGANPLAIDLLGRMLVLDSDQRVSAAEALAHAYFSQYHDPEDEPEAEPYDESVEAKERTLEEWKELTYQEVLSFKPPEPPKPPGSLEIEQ

IC50: 3.53 µM
Structure (SMILES): CC(C)(C)n1nc(-c2ccc(Cl)cc2)c2c(N)ncnc21
